± gives the expanded uncertainty stated by the source.
Details: 297.9 K, Liquid mixture 1, Pendant drop shape

interfacial tension (7020 kPa): 31.9 ± 0.7 mN/m | interfacial tension (8020 kPa): 31.9 ± 0.7 mN/m | interfacial tension (10010 kPa): 31.8 ± 0.7 mN/m | interfacial tension (14990 kPa): 30.6 ± 0.7 mN/m | interfacial tension (19990 kPa): 30 ± 0.7 mN/m
SMILES: O=C=O [carbon dioxide] + O
